Biological target: calf intestinal alkaline phosphatase (cIAP) (Bos taurus, UniProt P19111)
Test: spectrophotometric p-NPP hydrolysis assay at […] nm, commercial cIAP
Assay type: biochemical

Sequence of calf intestinal alkaline phosphatase (cIAP) (P19111 20-506): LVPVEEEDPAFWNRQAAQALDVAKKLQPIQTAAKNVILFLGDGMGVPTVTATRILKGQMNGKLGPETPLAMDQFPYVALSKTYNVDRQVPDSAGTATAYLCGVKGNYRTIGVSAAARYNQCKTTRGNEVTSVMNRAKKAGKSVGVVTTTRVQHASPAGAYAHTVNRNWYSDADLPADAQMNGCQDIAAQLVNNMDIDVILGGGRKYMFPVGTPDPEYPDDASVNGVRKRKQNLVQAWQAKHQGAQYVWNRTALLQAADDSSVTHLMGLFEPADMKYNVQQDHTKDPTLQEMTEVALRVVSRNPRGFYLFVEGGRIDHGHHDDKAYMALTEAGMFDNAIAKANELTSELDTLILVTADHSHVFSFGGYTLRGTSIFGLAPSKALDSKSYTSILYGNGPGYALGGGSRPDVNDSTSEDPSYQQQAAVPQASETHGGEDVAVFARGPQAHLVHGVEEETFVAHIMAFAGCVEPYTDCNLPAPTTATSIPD

IC50: 9.875 ± 0.05 µM
Structure (SMILES): CCNC(=S)NC(=O)c1cccc2ccccc12 [NA-MT, N-(ethylcarbamothioyl)-1-naphthamide]
